The target of one experiment is IRAK4 enzyme (Homo sapiens (Human), UniProt Q9NWZ3). In words: biochemical. The format is biochemical. To be noted: IRAK4 enzyme, TR-FRET, 500 μM ATP.
The subject of the next experiment is TNFα. As to the kind of experiment: cells. The class given is cell-based, human. Conditions: LPS-stimulated human monocytes, TNFα by TR-FRET, read-out: EC50 TNF.

Read-outs that look alike come from different tables or passages of the source. Some results are limits rather than exact numbers.

Sequence of IRAK4 enzyme (Q9NWZ3 whole entry): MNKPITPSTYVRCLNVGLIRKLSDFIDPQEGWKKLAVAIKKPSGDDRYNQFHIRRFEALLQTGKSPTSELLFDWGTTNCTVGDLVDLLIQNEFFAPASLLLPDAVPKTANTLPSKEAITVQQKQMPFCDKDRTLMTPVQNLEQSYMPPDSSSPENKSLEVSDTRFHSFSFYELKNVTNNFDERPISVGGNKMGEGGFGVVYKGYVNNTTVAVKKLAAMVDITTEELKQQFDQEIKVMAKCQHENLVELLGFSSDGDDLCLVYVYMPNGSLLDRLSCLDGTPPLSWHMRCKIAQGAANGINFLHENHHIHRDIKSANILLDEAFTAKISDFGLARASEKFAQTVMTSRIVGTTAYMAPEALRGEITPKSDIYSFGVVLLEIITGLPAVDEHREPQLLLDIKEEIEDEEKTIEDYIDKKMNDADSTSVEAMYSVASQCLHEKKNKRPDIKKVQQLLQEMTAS

Take `CC(C)(O)[C@H](F)CNC(=O)c1cnc(-c2ccc3cc(C#N)cnn23)cc1NCC1CNC1` [Example 905, (R)-4-((azetidin-3-yl-methyl)amino)-6-(3-cyanopyrrolo[1,2-b]pyridazin-7-yl)-N-(2-fluoro-3-hydroxy-3-methylbutyl)nicotinamide]: at IRAK4 enzyme, the IC50 was 15 nM. In the experiment with TNFα (Homo sapiens, Monocyte), the EC50 was > 10000 nM.

`COC(=O)N1CC(CNc2cc(-c3ccc4cc(C#N)cnn34)ncc2C(=O)NC[C@@H](F)C(C)(C)O)C1` [Example 906, (R)-methyl 3-(((2-(3-cyanopyrrolo[1,2-b]pyridazin-7-yl)-5-((2-fluoro-3-hydroxy-3-methylbutyl)carbamoyl)pyridin-4-yl)amino)methyl) azetidine-1-carboxylate] returned a half-maximal inhibitory concentration (IC50) at IRAK4 enzyme of 10 nM. Moreover, the EC50 in the experiment on TNFα (Homo sapiens, Monocyte) stood at 186 nM.

`CC(C)(O)[C@H](F)CNC(=O)c1cnc(-c2ccc3cc(C#N)cnn23)cc1NCC1CN(CC(F)(F)F)C1` [Example 907, (R)-6-(3-cyanopyrrolo[1,2-b]pyridazin-7-yl)-N-(2-fluoro-3-hydroxy-3-methylbutyl)-4-(((1-(2,2,2-trifluoroethyl)azetidin-3-yl)methyl)amino) nicotinamide] had a 50% inhibitory concentration (IC50) against IRAK4 enzyme of 10 nM. Moreover, the EC50 in the experiment with TNFα (Homo sapiens, Monocyte) was 91 nM.

With `CC(C)(O)[C@H](F)CNC(=O)c1cnc(-c2ccc3cc(C#N)cnn23)cc1NC1CC2(CCN2)C1` (stereo partly drawn) [Example 908, 4-(((4S,6r)-1-azaspiro[3.3]heptan-6-yl)amino)-6-(3-cyanopyrrolo[1,2-b]pyridazin-7-yl)-N-((R)-2-fluoro-3-hydroxy-3-methylbutyl)nicotinamide], the IC50 on IRAK4 enzyme is 6 nM. In the experiment with TNFα (Homo sapiens, Monocyte), the EC50 is 611 nM.

Consider `COC(=O)N1CCC12CC(Nc1cc(-c3ccc4cc(C#N)cnn34)ncc1C(=O)NC[C@@H](F)C(C)(C)O)C2` (stereo partly drawn) [Example 909, (4S,6r)-methyl 6-((2-(3-cyanopyrrolo[1,2-b]pyridazin-7-yl)-5-(((R)-2-fluoro-3-hydroxy-3-methylbutyl)carbamoyl)pyridin-4-yl)amino)-1-azaspiro[3.3]heptane-1-carboxylate], for which the IC50 at IRAK4 enzyme stood at 15 nM. Besides, the EC50 with TNFα was 372 nM.

At IRAK4 enzyme, `CC(C)(O)[C@H](F)CNC(=O)c1cnc(-c2ccc3cc(C#N)cnn23)cc1NC1CC2(CCN2CC(F)(F)F)C1` (stereo partly drawn) [Example 910, 6-(3-cyanopyrrolo[1,2-b]pyridazin-7-yl)-N-((R)-2-fluoro-3-hydroxy-3-methylbutyl)-4-(((4S,6r)-1-(2,2,2-trifluoroethyl)-1-azaspiro[3.3]heptan-6-yl)amino)nicotinamide] had an IC50 of 10 nM. The EC50 in the experiment on TNFα came to 1210 nM.

`CC(C)(O)[C@H](F)CNC(=O)c1cnc(-c2ccc3cc(C#N)cnn23)cc1NC1CC2(CCN2)C1` (stereo partly drawn) [Example 911, 4-(((4R,6s)-1-azaspiro[3.3]heptan-6-yl)amino)-6-(3-cyanopyrrolo[1,2-b]pyridazin-7-yl)-N-((R)-2-fluoro-3-hydroxy-3-methylbutyl) nicotinamide]: the midpoint of inhibition against IRAK4 enzyme, the IC50, lay at 7 nM. Further, the EC50 with TNFα stood at 318 nM.

On IRAK4 enzyme, `COC(=O)N1CCC12CC(Nc1cc(-c3ccc4cc(C#N)cnn34)ncc1C(=O)NC[C@@H](F)C(C)(C)O)C2` (stereo partly drawn) [Example 912, (4R,6s)-methyl 6-((2-(3-cyanopyrrolo[1,2-b]pyridazin-7-yl)-5-(((R)-2-fluoro-3-hydroxy-3-methylbutyl)carbamoyl)pyridin-4-yl)amino)-1-azaspiro[3.3]heptane-1-carboxylate] yielded an IC50 of 6 nM. Moreover, in the experiment on TNFα, the 50% effective concentration (EC50) came to 176 nM.

`CC(C)(O)[C@H](F)CNC(=O)c1cnc(-c2ccc3cc(C#N)cnn23)cc1NC1CC2(CCN2CC(F)(F)F)C1` (stereo partly drawn) [Example 913, 6-(3-cyanopyrrolo[1,2-b]pyridazin-7-yl)-N-((R)-2-fluoro-3-hydroxy-3-methylbutyl)-4-(((4R,6s)-1-(2,2,2-trifluoroethyl)-1-azaspiro[3.3]heptan-6-yl)amino)nicotinamide] had an IC50 against IRAK4 enzyme of 3 nM. Further, in the experiment with TNFα, the EC50 was determined as 226 nM.

For the compound `CC(C)(O)[C@H](F)CNC(=O)c1cnc(-c2ccc3cc(C#N)cnn23)cc1Nc1cnn([C@H]2CNC[C@H]2F)c1` [Example 914, 6-(3-cyanopyrrolo[1,2-b]pyridazin-7-yl)-N-((R)-2-fluoro-3-hydroxy-3-methylbutyl)-4-((1-((3S,4R)-4-fluoropyrrolidin-3-yl)-1H-pyrazol-4-yl)amino)nicotinamide], the IC50 at IRAK4 enzyme is < 1 nM. Besides, the EC50 with TNFα (Homo sapiens, Monocyte) stood at 13 nM.

Consider `COC[C@@H]1CCN1c1ccc(Nc2cc(-c3ccc4cc(C#N)cnn34)ncc2C(=O)NC[C@@H](F)C(C)(C)O)cn1` [Example 915, 6-(3-cyanopyrrolo[1,2-b]pyridazin-7-yl)-N-((R)-2-fluoro-3-hydroxy-3-methylbutyl)-4-((6-((S)-2-(methoxymethyl)azetidin-1-yl)pyridin-3-yl)amino) nicotinamide], for which the IC50 against IRAK4 enzyme is 1 nM. For the same compound, in the experiment on TNFα (Homo sapiens, Monocyte), the EC50 was found to be 28 nM.

As for `CC(C)(O)[C@H](F)CNC(=O)c1cnc(-c2ccc3cc(C#N)cnn23)cc1NC[C@H]1COCCN1` [Example 916, 6-(3-cyanopyrrolo[1,2-b]pyridazin-7-yl)-N-((R)-2-fluoro-3-hydroxy-3-methylbutyl)-4-((((S)-morpholin-3-yl)methyl)amino)nicotinamide], the midpoint of inhibition at IRAK4 enzyme, the IC50, lay at 3 nM. The EC50 with TNFα (Homo sapiens, Monocyte) worked out at 88 nM.

Turning to `CC(C)(O)[C@H](F)CNC(=O)c1cnc(-c2ccc3cc(C#N)cnn23)cc1NC[C@@H]1COCCN1` [Example 917, 6-(3-cyanopyrrolo[1,2-b]pyridazin-7-yl)-N-((R)-2-fluoro-3-hydroxy-3-methylbutyl)-4-((((R)-morpholin-3-yl)methyl)amino)nicotinamide], at IRAK4 enzyme, the IC50 was found to be 1 nM. The EC50 in the experiment with TNFα (Homo sapiens, Monocyte) worked out at 72 nM.

For `COC(=O)N1CCOC[C@H]1CNc1cc(-c2ccc3cc(C#N)cnn23)ncc1C(=O)NC[C@@H](F)C(C)(C)O` [Example 918, (R)-methyl 3-(((2-(3-cyano-pyrrolo[1,2-b]pyridazin-7-yl)-5-(((R)-2-fluoro-3-hydroxy-3-methylbutyl)carbamoyl)pyridin-4-yl)amino)methyl)morpholine-4-carboxylate], on IRAK4 enzyme, the IC50 was found to be 31 nM. Further, in the experiment on TNFα (Homo sapiens, Monocyte), the half-maximal effective concentration (EC50) came out at 416 nM.

Consider `COC(=O)N1CCOC[C@@H]1CNc1cc(-c2ccc3cc(C#N)cnn23)ncc1C(=O)NC[C@@H](F)C(C)(C)O` [Example 919, (S)-methyl 3-(((2-(3-cyano-pyrrolo[1,2-b]pyridazin-7-yl)-5-(((R)-2-fluoro-3-hydroxy-3-methylbutyl)carbamoyl)pyridin-4-yl)amino)methyl)morpholine-4-carboxylate], for which the IC50 at IRAK4 enzyme was 37 nM. Besides, the 50% effective concentration (EC50) in the experiment on TNFα (Homo sapiens, Monocyte) was determined as 707 nM.

Consider `CC(C)(O)[C@H](F)CNC(=O)c1cnc(-c2ccc3cc(C#N)cnn23)cc1Nc1cnc(N2CC3CC(C2)O3)nc1` [Example 920, 4-((2-(6-oxa-3-aza-bicyclo[3.1.1]heptan-3-yl)pyrimidin-5-yl)amino)-6-(3-cyanopyrrolo[1,2-b]pyridazin-7-yl)-N-((R)-2-fluoro-3-hydroxy-3-methyl-butyl)nicotinamide], for which the half-inhibitory concentration (IC50) against IRAK4 enzyme was < 1 nM. The EC50 in the experiment on TNFα (Homo sapiens, Monocyte) amounted to 8 nM.

For `CC(C)(O)[C@H](F)CNC(=O)c1cnc(-c2ccc3cc(C#N)cnn23)cc1Nc1cnc(N2CCNCC2)nc1` [Example 921, (R)-6-(3-cyanopyrrolo[1,2-b]pyridazin-7-yl)-N-(2-fluoro-3-hydroxy-3-methyl-butyl)-4-((2-(piperazin-1-yl)pyrimidin-5-yl)amino) nicotinamide], the IC50 at IRAK4 enzyme was < 1 nM. The EC50 in the experiment on TNFα (Homo sapiens, Monocyte) was determined as 45 nM.

Take `CC(C)(O)[C@H](F)CNC(=O)c1cnc(-c2ccc3cc(C#N)cnn23)cc1Nc1ccc(N2CC3CC(C2)O3)nc1` [Example 922, 4-((6-(6-oxa-3-azabicyclo[3.1.1]heptan-3-yl)pyridin-3-yl)amino)-6-(3-cyanopyrrolo[1,2-b]pyridazin-7-yl)-N-((R)-2-fluoro-3-hydroxy-3-methylbutyl)nicotinamide]: the IC50 against IRAK4 enzyme is < 1 nM. Besides, the concentration for a half-maximal effect (EC50) with TNFα (Homo sapiens, Monocyte) came out at 42 nM.

As for `N#Cc1cnn2c(-c3cc(NC45CCC(O)(CC4)CC5)c(C(=O)NCC(=O)N4CCC4)cn3)ccc2c1` [Example 923, N-(2-(azetidin-1-yl)-2-oxoethyl)-6-(3-cyanopyrrolo[1,2-b]pyridazin-7-yl)-4-((4-hydroxybicyclo[2.2.2]octan-1-yl)amino) nicotinamide], at IRAK4 enzyme, the IC50 is < 1 nM. In addition, the EC50 with TNFα (Homo sapiens, Monocyte) was determined as 52 nM.

With `CC1(C)CC1CNC(=O)c1cnc(-c2ccc3cc(C#N)cnn23)cc1NC12CCC(O)(CC1)CC2` (stereo not shown) [Example 924, 6-(3-cyanopyrrolo[1,2-b]pyridazin-7-yl)-N-((2,2-dimethylcyclopropyl)methyl)-4-((4-hydroxy-bicyclo[2.2.2]octan-1-yl)amino)nicotinamide], on IRAK4 enzyme, 1 nM corresponded to half-maximal inhibition (IC50). Moreover, the EC50 in the experiment with TNFα (Homo sapiens, Monocyte) came to 119 nM.

Turning to `Cn1cncc1CNC(=O)c1cnc(-c2ccc3cc(C#N)cnn23)cc1NC12CCC(O)(CC1)CC2` [Example 925, 6-(3-cyanopyrrolo[1,2-b]pyridazin-7-yl)-4-((4-hydroxybicyclo[2.2.2]octan-1-yl)amino)-N-((1-methyl-1H-imidazol-5-yl)methyl)nicotinamide], at IRAK4 enzyme, the IC50 was 4 nM. Besides, the EC50 in the experiment with TNFα (Homo sapiens, Monocyte) came to 583 nM.

In turn, `Cn1cc(CNC(=O)c2cnc(-c3ccc4cc(C#N)cnn34)cc2NC23CCC(O)(CC2)CC3)cn1` [Example 926, 6-(3-cyanopyrrolo[1,2-b]pyridazin-7-yl)-4-((4-hydroxybicyclo[2.2.2]octan-1-yl)amino)-N-((1-methyl-1H-pyrazol-4-yl)methyl)nicotinamide] yielded an IC50 at IRAK4 enzyme of 2 nM. In the experiment on TNFα (Homo sapiens, Monocyte), the EC50 came out at 192 nM.

For `CC(C)(O)[C@H](F)CNC(=O)c1cnc(-c2ccc3cc(C#N)cnn23)cc1NC1CC(CNC(=O)C2CCC2)C1` (stereo partly drawn) [Example 927, 6-(3-cyanopyrrolo[1,2-b]pyridazin-7-yl)-4-(((1r,3R)-3-(cyclobutanecarboxamido-methyl)cyclobutyl)amino)-N-((R)-2-fluoro-3-hydroxy-3-methylbutyl)nicotinamide], on IRAK4 enzyme, the half-maximal inhibitory concentration (IC50) was < 1 nM. The EC50 in the experiment on TNFα (Homo sapiens, Monocyte) was found to be 22 nM.

These data come from US10336762B2 (priority 2017, dated 2019).
